Series [1] can be described thus: in vitro. Conditions: dog, MDCK-MDR1. On the procedure:
Permeability assays were conducted using 5 µM of each test compound with digoxin as a control. […] electrical resistance was used to verify the integrity of the MDCK-MDR1 monolayer. After compound addition, plates were incubated at 37 °C with 5% CO2 for 1 h. Samples were analyzed by LC–MS/MS and net flux ratio was calculated using basal-to-apical and apical-to-basal permeability.

Series [2] has as its system O. ochengi adult males. Kind of series: O. ochengi adult male motility assay. The class given is cell-based. The conditions noted are these: Onchocerca ochengi, 120 h; for IC50: read-out: O. ochengi Adult Males Inhibition of Motility Day 5 IC50; for inhibition at 10 µM: single concentration 10 µM, read-out: O. ochengi Adult Males Inhibition of Motility Day 5. From the text:
(§1) As humans are the only hosts for O. volvulus which are unavailable for screening, drug discovery relies on the surrogate filarial parasites Brugia spp. and cattle Onchocerca spp. Prioritized compounds from the Brugia worm screens were further tested with female and male adult O. ochengi as well as O. ochengi and L. loa mf.
(§2) For these assays, O. ochengi adults were extracted from the subcutaneous nodules of infected cow skins purchased from the local slaughterhouse (Douala, Littoral Region, Cameroon) and incubated in 4 mL complete culture media comprised of RPMI-1640 (Sigma-Aldrich), 5% newborn calf serum, 200 units/mL penicillin, 200 μg/mL streptomycin and 2.5 μg/mL amphotericin B (Sigma-Aldrich) in 12-well plates overnight to validate sterility prior to the assays. Four to eight O. ochengi adult masses were treated individually the following day with a serial dilution of each compound, and controls were treated with 1% DMSO. While in culture, the male worms normally egress from the nodules into the surrounding media and thus can be monitored in parallel for motility. The O. ochengi adult masses were incubated at 37 °C with 5% CO2 for the duration of the assay. Male motility within each well was visually scored every day and over 5 days after compound addition, and female viability within the nodules was assessed by MTT after 7 days as previously described. The O. ochengi adult masses containing female worms were individually placed in wells of a 48-well plate with 0.5 mL of 0.5 mg/mL MTT in PBS and incubated at 37 °C for 30 min. Female viability was visually rated by the degree of formazan production (live worms have blue coloration) in the female worm within the treated nodule versus control worm masses. […] Prism 4.0 for Windows was used to calculate IC50s.

Series [3] deals with O. ochengi adult females. Kind of series: O. ochengi adult female viability (MTT) assay. In kind it is cell-based. The conditions noted are these: Onchocerca ochengi, 168 h; Day 7, MTT; read-out: O. ochengi Adult Females Inhibition of Survival Day 7 IC50.
Description: as §1
as §2, with “min.” for “min. Female viability was visually rated by the degree of formazan production (live worms have blue coloration) in the female worm within the treated nodule versus control worm masses.”

Series [4] has as its system Loa loa mf. As to the kind of experiment: Loa loa microfilariae motility counter-screen. In kind it is cell-based. Conditions: for inhibition at 10 µM: Loa loa, 120 h, Day 5. On the procedure:
(§3) To assess the effects of the compounds on O. ochengi mf, the mf were harvested from infected cow skin and cultured (10–15 mf per well) in 100 µL media in 96-well plates with a confluent feeder layer of monkey kidney epithelial cells (MK2) as previously described. […] All compounds were also counter-screened with L. loa mf collected from infected individuals with approval from the University of Buea (IRB approval # 964-19). Mf were separated from blood cells using a Percoll gradient as previously described and set up for assays (10–15 mf per well).

Series [5] concerns O. ochengi mf. As to the kind of experiment: O. ochengi microfilariae motility assay. The class given is cell-based, Onchocerca ochengi. The conditions noted are these: 10 µM; for inhibition at 10 µM: Onchocerca ochengi, 120 h, Day 5. On the procedure: as §3
Series [6] concerns O. volvulus pre-adult L5. As to the kind of experiment: O. volvulus pre-adult (Ov L5) motility assay. The class given is cell-based, Onchocerca volvulus. Conditions: Onchocerca volvulus. On the procedure:
O. volvulus adult male and female worms, which can only be obtained from infected individuals, are not readily accessible for ex vivo studies. Moreover, since there is no small animal model that can maintain infections by O. volvulus, a recently developed in vitro system was used to evaluate the macrofilaricidal effects on pre-adult worms. All compounds except for 04 were tested in this O. volvulus pre-adult/L5 motility and viability assay.
(§4) Briefly, Ov L3 larvae were cultured to the pre-adult/L5 stage in vitro as described by Voronin et al., 2019 [45]. Once larvae reached the L5 stage (after at least 70 days in culture), 8–10 Ov L5 were moved to new transwell inserts in a 24-well plate containing 0.5 mL Ov L4-CMS media seeded with a 3 × 10^4/well Human Umbilical Vein Endothelial Cells (HUVEC) monolayer. Duplicate wells were treated with 1 and/or 10 µM of compound. Ov L5 were exposed to compounds for 14 days (exchanged 50% of media with fresh compound every two days) and then cultured with new media without compound, exchanging 50% of media every 2–3 days, up to day 36. Control Ov L5 were treated with 0.05% DMSO. Concentrations were chosen based on activity in the B. pahangi female motility assay. Motility was assessed visually and ranked on a 0–100% scale every 2–3 days over the course of the assay. At the end of the motility assay, Ov L5 viability was measured by 3-(4,5-dimethylthiazol-2-yl)-2,5-diphenyltetrazolium bromide (MTT) assay. Ov L5 were incubated with 0.1% MTT in PBS at 37 °C for 1 h then visually inspected for blue coloration indicating MTT reduction. Worms were considered dead if <50% of the worm was stained blue, and worms were considered alive if >50% of the worm was stained blue.

Series [7] relates to Brugia pahangi adult females. Kind of series: In vitro motility assay with adult female Brugia pahangi (Worminator). Conditions: for inhibition at 1 µM / IC50: Brugia pahangi, 72 h; for inhibition at 1 µM: read-out: Brugia Adult Females Inhibition of Motility Day 3 @ 1 µM, 1 µM, Day 3; for IC50: read-out: Brugia Adult Females Inhibition of Motility Day 3 IC50.
The nature of series [8]: Gerbil liver microsome stability assay. In kind it is in vitro ADME. The conditions noted are these: for CLint: gerbil liver microsomes; for half-life at 1 µM: pH 7.4, 1 µM compound, 0.5 mg/mL microsomes, read-out: Gerbil Liver Microsome T1/2. On the procedure:
Microsomal stability was tested using 1 µM of each test compound in a 96-well plate containing 0.5 mg/mL gerbil liver microsomes, 1 mM NADPH and/or UDPGA with alamethicin in a buffer of 100 mM potassium phosphate with 3 mM magnesium chloride at pH 7.4. Verapamil was used as a positive control. Reactions were incubated at 37 °C, and 100% acetonitrile with 0.1% formic acid was added at 0, 15, 30 and 60 min timepoints to stop the reaction. Samples were then separated over a Waters Atlantis T3 dC18 reverse phase HPLC column with 0.1% formic acid in water and 0.1% formic acid in acetonitrile. Samples were analyzed using an AB Sciex API 4000 LC–MS/MS.

Series [9] deals with O. volvulus pre-adult L5. As to the kind of experiment: Ov L5 viability by endpoint MTT assay. In kind it is cell-based, Onchocerca volvulus. The conditions noted are these: 1 µM. On the procedure: as §4, with “Concentrations were chosen based on activity in the B. pahangi female motility assay.” left out
Setting [10] is: Day 36 @ 1 µM, 14 days drug then washout.

Where only a bound is given, the exact number is not on record here.

In [1], `Cc1ccc2c(ccc(/C=C/c3cc(C)n(-c4ccccc4)c3C)[n+]2C)c1.[I-]` [Analog 02, 2-[(E)-2-(2,5-dimethyl-1-phenyl-1H-pyrrol-3-yl)ethenyl]-1,6-dimethylquinolin-1-ium iodide] had a Papp A→B of 0.1 ×10⁻⁶ cm/s and a basolateral-to-apical permeability (Papp B→A) of 51.2 ×10⁻⁶ cm/s. Besides, the IC50 in [2] amounted to 3080 nM. Moreover, the IC50 in [3] is 700 nM. Besides, in series [4], the “Loa loa Mf Inhibition of Motility Day 5 @ 10 µM” value (“Loa loa Mf Inhibition” below) was “completely inhibited” and the inhibition at 10 µM came out at 100%. Further, in series [5], the “O. ochengi Mf Inhibition of Motility Day 5 @ 10 µM” value (from here on “O. ochengi Mf Inhibition”) is listed as “completely inhibited” and the inhibition at 10 µM was 100%. This compound gave an inhibition at 1 µM in series [6] (384 h, Day 16 @ 1 µM, assay stopped on day 16 (contamination)) of 90%. The compound also came in with an inhibition at 1 µM in series [6] (setting [10]) of over 90%. In addition, in [7], the “Brugia Adult Females Inhibition of Motility Day 3 @ 1 µM” value was 83%, the inhibition at 1 µM is over 70%, the IC50 is 1 nM and the “Brugia Adult Females Inhibition of Motility Day 3 IC50” value was “sub-micromolar range”. In [8], the CLint was found to be 541.8 µL/min/mg Protein and the half-life at 1 µM was 2.6 min.

In series [1], `Cc1c(/C=C/c2ccc3ccccc3[n+]2C)cnn1-c1ccccc1.[I-]` [Analog 03, 1-methyl-2-[(E)-2-(5-methyl-1-phenyl-1H-pyrazol-4-yl)ethenyl]quinolin-1-ium iodide] gave an apparent permeability from apical to basolateral (Papp A→B) of 1.3 ×10⁻⁶ cm/s and an apparent permeability from basolateral to apical (Papp B→A) of 9.1 ×10⁻⁶ cm/s. For the same compound, in series [2], the IC50 was found to be 1540 nM. Besides, the IC50 in [3] was found to be 5180 nM. Besides, in series [4], the “Loa loa Mf Inhibition” value was “little to no effect” and the inhibition at 10 µM came out at 13%. Also, in [5], the “O. ochengi Mf Inhibition” value is “little to no effect” and 10 µM produced 0% inhibition. In series [6] (672 h, Day 28 @ 10 µM), this compound showed an inhibition at 10 µM of 97%. For the same compound, the inhibition at 1 µM in [7] amounted to 3%. In series [8], the CLint came to 280.2 µL/min/mg Protein and the half-life at 1 µM amounted to 4.9 min.

Regarding `C[n+]1c(/C=C/c2cnn(-c3ccccc3)c2)ccc2ccccc21.[I-]` [Analog 04, 1-methyl-2-[(E)-2-(1-phenyl-1H-pyrazol-4-yl)ethenyl]quinolin-1-ium iodide], the inhibition at 10 µM in [2] is 100%. In [4], the “Loa loa Mf Inhibition” value is “little to no effect” and testing at 10 µM gave an inhibition of 38%. Besides, in series [5], the “O. ochengi Mf Inhibition” value was “little to no effect” and testing at 10 µM gave an inhibition of 0%. The inhibition at 1 µM in [7] was found to be 26%.

Consider `Cc1nn(-c2ccccc2)c(C)c1/C=C/c1ccc2ccccc2[n+]1C.[I-]` [Analog 05, 2-[(E)-2-(3,5-dimethyl-1-phenyl-1H-pyrazol-4-yl)ethenyl]-1-methylquinolin-1-ium iodide], for which, in series [9], the “O. volvulus L5 % inhibition of viability Day 37 (MTT assay)” value was 76%. In [1], this compound gave a Papp A→B of 0.7 ×10⁻⁶ cm/s and a Papp B→A of 6.8 ×10⁻⁶ cm/s. Also, the inhibition at 10 µM in [2] worked out at 86%. Moreover, in [4], the “Loa loa Mf Inhibition” value is “little to no effect” and the inhibition at 10 µM stood at 38%. For the same compound, in series [5], the “O. ochengi Mf Inhibition” value is “little to no effect” and 10 µM produced 0% inhibition. In addition, in series [6] (setting [10]), the inhibition at 1 µM was over 90%. In series [7], the “Brugia Adult Females Inhibition of Motility Day 3 @ 1 µM” value amounted to 81%, the inhibition at 1 µM was over 70%, the concentration for half-maximal inhibition (IC50) was 405 nM and the “Brugia Adult Females Inhibition of Motility Day 3 IC50” value is listed as “sub-micromolar range”. In [8], the CLint came to 179.88 µL/min/mg Protein and the half-life at 1 µM came to 7.7 min.
